# Experimental data from US10160772B2, “5,6-dihydro-4H-benzo[b]thieno-[2,3-d]azepine derivatives” (PULMOCIDE LIMITED, priority 2014, dated 2018).
# What was measured:
# Format in all cases: cell-based
# RSV A2 strain = experiment: RSV A2-induced CPE in Hep2 cells; conditions: human respiratory syncytial virus, Hep2 cells; for IC50: HEp-2, 120 h, RSV A2 1 MOI, 5 days, resazurin, read-out: RSV A2 CPE IC50; for inhibition at 0.1 µg/mL / inhibition at 0.01 µg/mL: HEp-2, read-out: RSV A2 CPE % Inhibition; for inhibition at 0.1 µg/mL: at 0.1 μg/mL; for inhibition at 0.01 µg/mL: at 0.01 μg/mL (footnote 2)
# Experimental: (§1) Biological Testing: Experimental Methods Assessment of RSV Induced CPE in Hep2 Cells
# (§2) Hep2 cells were seeded (10^3/well/50 μL) in 384-well plates (Catalogue number 353962, BD Falcon, Oxford, UK) in 5% serum free-DMEM containing 2 mM L-glutamine and 1 mM sodium pyruvate one day before infection. RSV A2 strain (#0709161v, NCPV, Public Health England, Wiltshire) or RSV B Washington strain (VR-1580, ATCC, Manassas, Va. 20108) virus solutions were prepared in serum free-DMEM with 2 mM L-glutamine and 1 mM sodium pyruvate, and then added (50 μL/well) to achieve a final virus concentration of 1 MOI for RSV A and 0.1MOI for RSV B. Simultaneously test compounds (0.5 μL DMSO solution) were added to 100 μL of Hep2 cell culture with virus solution to provide a final DMSO solution of 0.5%. Plates were incubated (37° C./5% CO2) for 5 days for studies using RSV A2 strain or 6 days for those using RSV B strain, and then resazurin sodium salt (5 μL of 0.03% solution; Sigma-Aldrich, Dorset, UK) was added to each well and the plate incubated for a further 6 hr (37° C. and 5% CO2). The fluorescence of each well [545 nm (excitation)/590 nm (emission)] was determined using a multi-scanner (Clariostar: BMG, Buckinghamshire, UK). The percentage inhibition for each well was calculated and the IC50, IC75 and IC90 values were calculated from the concentration-response curve generated for each test compound.
# RSV B Washington strain = experiment: RSV B-induced CPE in Hep2 cells; conditions: human respiratory syncytial virus, Hep2 cells; for IC50: HEp-2, 144 h, RSV B Washington 0.1 MOI, 6 days, resazurin, read-out: RSV B CPE IC50; for inhibition at 1 µg/mL: HEp-2, at 1 μg/mL, read-out: RSV B CPE % Inhibition
# Experimental: as §1, §2
# [1] = Cell viability: resazurin assay in Hep2 cells; conditions: human, 5 days incubation
# Experimental: Cell Viability: Resazurin Assay Hep2 cells were seeded in 384-well plates (10^3/well/50 μL; BD Falcon Ref 353962) in FBS DMEM (5%, containing 2 mM L-glutamine and 1 mM sodium pyruvate) one day before experimentation. Serum-free DMEM (50 μL) was added to test wells while for control wells the media was removed and sterile water (100 μL) was added. Test compounds (0.5 μL DMSO solution) were added to give a final DMSO concentration of 0.5%. Hep2 cells were incubated with each test compound for 5 days (37° C./5% CO2 in 5% FBS) and then resazurin stock solution (5 μL; 0.03%) was added to each well and the plate incubated further for a further 6 hrs (37° C./5% CO2). The fluorescence of each well at 545 nm (excitation) and 590 nm (emission) was determined using a multi-scanner (Clariostar: BMG Labtech). The percentage loss of cell viability was calculated for each well relative to vehicle (0.5% DMSO) treatment. Where appropriate, a CC50 value was calculated from the concentration-response curve generated from the concentration-response curve for each test compound.
IC50 (RSV A2 strain) [nM],IC50 (RSV B Washington strain) [nM],Compound,inhibition at 0.1 µg/mL (RSV A2 strain) [%],inhibition at 1 µg/mL (RSV B Washington strain) [%],CC50 at 5 days [1] [nM],inhibition at 0.01 µg/mL (RSV A2 strain) [%]
0.21,45.2,"COc1ccc(C(=O)Nc2ccc(C(=O)N3CCc4cc(-c5nc6ccccc6[nH]5)sc4-c4ccccc43)cc2)c(N2CC3(CCOCC3)C2)n1 [Example 21, N-(4-(2-(1H-benzo[d]imidazol-2-yl)-5,6-dihydro-4H-benzo[b]thieno[2,3-d]azepine-6-carbonyl)phenyl)-6-methoxy-2-(7-oxa-2-azaspiro[3.5]nonan-2-yl)nicotinamide]",100,100,> 14400,–
0.085,0.99,"Cc1cnc(N2CC3(CCOCC3)C2)c(C(=O)Nc2ccc(C(=O)N3CCc4cc(-c5nc6ccccc6[nH]5)sc4-c4ccccc43)cc2)c1 [Example 13, N-(4-(2-(1H-benzo[d]imidazol-2-yl)-5,6-dihydro-4H-benzo[b]thieno[2,3-d]azepine-6-carbonyl)phenyl)-5-methyl-2-(7-oxa-2-azaspiro[3.5]nonan-2-yl)nicotinamide]",100,100,> 14700,–
0.17,83.3,"Cc1cnc(N2CC3(CCOCC3)C2)c(C(=O)Nc2ccc(C(=O)N3CCc4cc(-c5nc6cccc(Cl)c6[nH]5)sc4-c4ccccc43)cc2)c1 [Example 15, N-(4-(2-(7-chloro-1H-benzo[d]imidazol-2-yl)-5,6-dihydro-4H-benzo[b]thieno[2,3-d]azepine-6-carbonyl)phenyl)-5-methyl-2-(7-oxa-2-azaspiro[3.5]nonan-2-yl)nicotinamide]",85,100,> 14000,–
0.85,27.3,Cc1cc(C(=O)Nc2ccc(C(=O)N3CCc4cc(-c5nc6cccc(C)c6[nH]5)sc4-c4ccccc43)cc2)c(N2CC3(CCOCC3)C2)nc1C [Example 24],100,100,> 14100,–
0.11,16,"Cc1cnc(N2CC3(CCOCC3)C2)c(C(=O)Nc2ccc(C(=O)N3CCc4cc(-c5nc6cccc(C)c6[nH]5)sc4-c4ccccc43)cc2)c1 [Example 16, 5-methyl-N-(4-(2-(7-methyl-1H-benzo[d]imidazol-2-yl)-5,6-dihydro-4H-benzo[b]thieno[2,3-d]azepine-6-carbonyl)phenyl)-2-(7-oxa-2-azaspiro[3.5]nonan-2-yl)nicotinamide]",100,99,> 14400,–
1.6,14,"Cc1cc(C(=O)Nc2ccc(C(=O)N3CCc4cc(-c5nc6cccc(F)c6[nH]5)sc4-c4ccccc43)cc2)c(N2CC3(CCOCC3)C2)nc1C [Example 22, N-(4-(2-(7-fluoro-1H-benzo[d]imidazol-2-yl)-5,6-dihydro-4H-benzo[b]thieno[2,3-d]azepine-6-carbonyl)phenyl)-5,6-dimethyl-2-(7-oxa-2-azaspiro[3.5]nonan-2-yl)nicotinamide]",–,100,> 14000,90
0.28,7.4,"Cc1cnc(N2CC3(CCOCC3)C2)c(C(=O)Nc2ccc(C(=O)N3CCc4cc(-c5nc6cccc(C#N)c6[nH]5)sc4-c4ccccc43)cc2)c1 [Example 18, N-(4-(2-(7-cyano-1H-benzo[d]imidazol-2-yl)-5,6-dihydro-4H-benzo[b]thieno[2,3-d]azepine-6-carbonyl)phenyl)-5-methyl-2-(7-oxa-2-azaspiro[3.5]nonan-2-yl)nicotinamide]",100,100,> 14200,–
0.67,44.1,"O=C(Nc1ccc(C(=O)N2CCc3cc(-c4nc5cccc(Cl)c5[nH]4)sc3-c3ccccc32)cc1)c1cccnc1N1CC2(CCOCC2)C1 [Example 9, N-(4-(2-(7-chloro-1H-benzo[d]imidazol-2-yl)-5,6-dihydro-4H-benzo[b]thieno[2,3-d]azepine-6-carbonyl)phenyl)-2-(7-oxa-2-azaspiro[3.5]nonan-2-yl)nicotinamide]",100,100,> 14300,–
0.14,62,"O=C(Nc1ccc(C(=O)N2CCc3cc(-c4nc5cccc(C(F)(F)F)c5[nH]4)sc3-c3ccccc32)cc1)c1cccnc1N1CC2(CCOCC2)C1 [Example 10, 2-(7-oxa-2-azaspiro[3.5]nonan-2-yl)-N-(4-(2-(7-(trifluoromethyl)-1H-benzo[d]imidazol-2-yl)-5,6-dihydro-4H-benzo[b]thieno[2,3-d]azepine-6-carbonyl)phenyl)nicotinamide]",100,100,> 13600,–
0.29,15,"Cc1cnc(N2CC3(CCOCC3)C2)c(C(=O)Nc2ccc(C(=O)N3CCc4cc(-c5nc6cccc(C)c6[nH]5)sc4-c4ccccc43)c(F)c2)c1 [Example 27, N-(3-fluoro-4-(2-(7-methyl-1H-benzo[d]imidazol-2-yl)-5,6-dihydro-4H-benzo[b]thieno[2,3-d]azepine-6-carbonyl)phenyl)-5-methyl-2-(7-oxa-2-azaspiro[3.5]nonan-2-yl)nicotinamide]",90,80,> 14000,–
0.75,103,"Cc1cc(C(=O)Nc2ccc(C(=O)N3CCc4cc(-c5nc6cccc(Cl)c6[nH]5)sc4-c4ccccc43)cc2)c(N2CC3(CCOCC3)C2)nc1C [Example 23, N-(4-(2-(7-chloro-1H-benzo[d]imidazol-2-yl)-5,6-dihydro-4H-benzo[b]thieno[2,3-d]azepine-6-carbonyl)phenyl)-5,6-dimethyl-2-(7-oxa-2-azaspiro[3.5]nonan-2-yl)nicotinamide]",100,100,> 13700,–
0.27,12,"Cc1cnc(N2CC3(CCOCC3)C2)c(C(=O)Nc2ccc(C(=O)N3CCc4cc(-c5nc6ccccc6[nH]5)sc4-c4ccccc43)c(F)c2)c1 [Example 26, N-(4-(2-(1H-benzo[d]imidazol-2-yl)-5,6-dihydro-4H-benzo[b]thieno[2,3-d]azepine-6-carbonyl)-3-fluorophenyl)-5-methyl-2-(7-oxa-2-azaspiro[3.5]nonan-2-yl)nicotinamide]",–,100,> 14300,100
0.96,6.3,"Cc1cnc(N2CC3(CCOCC3)C2)c(C(=O)Nc2ccc(C(=O)N3CCc4cc(-c5nc6cc(F)cc(F)c6[nH]5)sc4-c4ccccc43)cc2)c1 [Example 19, N-(4-(2-(5,7-difluoro-1H-benzo[d]imidazol-2-yl)-5,6-dihydro-4H-benzo[b]thieno[2,3-d]azepine-6-carbonyl)phenyl)-5-methyl-2-(7-oxa-2-azaspiro[3.5]nonan-2-yl)nicotinamide]",–,100,> 14000,88
0.28,45.7,"Cc1ccc2nc(-c3cc4c(s3)-c3ccccc3N(C(=O)c3ccc(NC(=O)c5cccnc5N5CC6(CCOCC6)C5)cc3)CC4)[nH]c2c1 [Example 11, N-(4-(2-(6-methyl-1H-benzo[d]imidazol-2-yl)-5,6-dihydro-4H-benzo[b]thieno[2,3-d]azepine-6-carbonyl)phenyl)-2-(7-oxa-2-azaspiro[3.5]nonan-2-yl)nicotinamide]",100,100,> 14700,–
0.66,13.3,"CCc1cnc(N2CC3(CCOCC3)C2)c(C(=O)Nc2ccc(C(=O)N3CCc4cc(-c5nc6ccccc6[nH]5)sc4-c4ccccc43)cc2)c1 [Example 4, N-(4-(2-(1H-Benzo[d]imidazol-2-yl)-5,6-dihydro-4H-benzo[b]thieno[2,3-d]azepine-6-carbonyl)phenyl)-5-ethyl-2-(7-oxa-2-azaspiro[3,5]nonan-2-yl)nicotinamide]",–,100,> 14400,86
